The record followed here is patent US12569508B2, “Antimicrobial compositions and methods of use” (priority 2020, dated 2026).

For one series, the system named is PAO1 biofilm on CFBE41o−. The series is described as follows: Chronic infection model CFBE41o− and PAO1: bacterial counts. The class given is cell-based, P. aeruginosa. Here is the method:
A chronic infection model was developed which cultures P. aeruginosa biofilm on top of the bronchial CF epithelium cells (CFBE41o−) at an air-liquid interface. It is a biologically relevant, 3D model that resembles the infected lungs of CF patients.
(§1) To assess the activity and toxicity or formulations, the CFBE41o− cell line was seeded on Transwell® inserts (0.05×10^6) at the liquid-liquid interface (500 μL apical and 1500 μL basolateral) on day 0. On day 3, the apical side media was removed, and the basolateral side was replaced with 500 μL of media. On day 7, the transepithelial electrical resistance (TEER) was measured through adding 500 μL to the apical chamber of one well and replacing the basolateral side with 1500 μL. The transferred biofilm model, described above, was employed to transfer the PAO1 biofilm on top of the CFBE41o− cell line in the apical compartment of the Transwells® on day 7. After 1 h incubation, the supernatant was removed as the biofilm has settled onto the cells.
Using the Aerogen® Pro (vibrating mesh nebuliser) and nebulisation chamber, the treatments were then nebulised on top of the biofilm and CFBE41o− cell layer. TOB as an unformulated solution or loaded in the MO-LCNPs were dosed at 10 μg, which was equivalent to 100 μL of 3.32 mg/mL for unformulated TOB and 2.50 mg/mL for MO-LCNPs loaded with TOB. The treatments were prepared by diluting the stock solution/LCNPs suspension to the required concentration in KRB buffer. Each time the nebuliser was first rinsed with KRB buffer and the Transwell® to be dosed was transfered to a clean 12 well plate. The treatment was nebulised following a 30 second deposition waiting time. After all treatments were dosed, the Transwells® were replaced to their original well that included fresh MEM media supplemented with 1% arginine (500 μL) and incubated for the required time at 37° C.
At the time points 24 h and 48 h, different read outs were obtained, including bacterial counts, viability of cells and barrier integrity. […] The plates were incubated for 18 h at 30° C. before the colonies of bacteria were counted.

The nature of series [1]: Tobramycin transport across CFBE41o− infected with PAO1 biofilm. Conditions: human; nebulised; biofilm and epithelium monolayer; read-out: Papp of TOB. The class given is in vitro ADME, human. Here is the method:
as §1
(§2) Using the Aerogen® Pro (vibrating mesh nebuliser) and nebulisation chamber, the treatments were then nebulised on top of the biofilm and CFBE41o− cell layer. […]
(§3) After TOB treatments were nebulised, at 5, 15, 30, 60, 120, 240 and 1440 minutes, 100 μL sample was taken from the basolateral compartment and replaced with fresh MEM media. The sample was then filtered through 4 mm Millex® syringe filters before LC-MS/MS analysis, as described above, to quantify the transport of TOB.

In series [2] the test system is CFBE41o− infected with PAO1 biofilm. The series is described as above. The class given is in vitro ADME, human. Conditions: peak at 2.5 h after nebulisation. Here is the method:
as §1, §2, §3

Series [3] can be described thus: Deposition efficiency after nebulisation (Aerogen Pro vibrating mesh nebuliser). The class given is physicochemical. The settings on record: 100 μL nebulised into 24-well plate. Here is the method:
The Aerogen® Pro (vibrating mesh nebuliser) connected to a nebuliser chamber was used to aerosolise unformulated solutions of TOB, and LCNPs loaded with TOB. The nebulisation chamber fitted into the well of a 24-well plate, ensuring the dose was deposited into a single well. Before use, the nebuliser was rinsed twice with 0.9% NaCl. Then each formulation of TOB was tested to ensure an even aerosol was produced. 100 μL of TOB as an unformulated solution, and in MO-LCNPs and PHY-LCNPs was nebulised into the wells of a 24-well plate that contained 200 μL of 0.9% sodium chloride. The total drug concentration was then determined from each well to calculate the total mass deposited. […] The nebulised samples were assessed for particle size and zeta potential, as described above.
For the nebulisation samples and transport studies (see below), TOB was quantified by liquid chromatography tandem mass spectrometry (LC-MS) using a Dionex UltiMate 3000 Binary Rapid Separation LC System (Thermo Scientific, USA) coupled with a TSQ Quantum Access Max (QQQ, Thermo Scientific, USA) and a modified ion-pairing method. […] 3 μL of the samples were injected and quantification was done by ESI+ and the SRM of the ion 468.184→323.960.

In the case of `NC[C@H]1O[C@H](O[C@H]2[C@H](O)[C@@H](O[C@H]3O[C@H](CO)[C@@H](O)[C@H](N)[C@H]3O)[C@H](N)C[C@@H]2N)[C@H](N)C[C@@H]1O` [unformulated TOB, tobramycin], the P. aeruginosa remaining with PAO1 biofilm on CFBE41o− (24 h after nebulisation, biofilm of 4×10^8 CFU/mL) was 7.4×10^3 CFU/mL; with PAO1 biofilm on CFBE41o− (48 h, one nebulised dose), 1.2×10^3 CFU/mL; in the series with PAO1 biofilm on CFBE41o− (48 h, two nebulised doses), 5.4×10^1 CFU/mL. For the same compound, the Papp (usually a coefficient for how fast a substance crosses the barrier) at 1440 min, 3.32 mg/mL in series [1] turned out to be 1.91 ×10⁻⁶ cm/s. In addition, the “TOB reaching the basolateral compartment” value in series [2] is recorded as 15.8%. In addition, the “deposition efficiency of TOB” value in series [3] is recorded as 3.25%.
